According to PubChem BioAssay (NCI):
“And” between values parts separate entries of the source, which are not always exact repeats. Equal values may be shown once.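 Assay format: 96-well plates, 48-hour exposure. Here, GI50 denotes the concentration required for 50% inhibition of growth. TGI denotes the concentration required for complete inhibition of growth.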

Legend:
Experiment in all cases: growth of human tumour cells (NCI), 48 h
MDA-MB-435 = test system: MDA-MB-435
SW-620 colon = test system: SW-620 colon
IGROV1 ovarian = test system: IGROV1 ovarian
BT-549 breast = test system: BT-549 breast
HCC-2998 colon = test system: HCC-2998 colon
A498 renal = test system: A498 renal
CAKI-1 renal = test system: CAKI-1 renal
MCF7 breast = test system: MCF7 breast
SN12C renal = test system: SN12C renal
NCI-H226 lung = test system: NCI-H226 lung

SMILES | TGI (MDA-MB-435) | TGI (SW-620 colon) | TGI (IGROV1 ovarian) | TGI (BT-549 breast) | TGI (HCC-2998 colon) | TGI (A498 renal) | TGI (CAKI-1 renal) | TGI (MCF7 breast) | TGI (SN12C renal) | GI50 (MDA-MB-435) | GI50 (SW-620 colon) | GI50 (IGROV1 ovarian) | GI50 (NCI-H226 lung) | TGI (NCI-H226 lung) | GI50 (BT-549 breast) | GI50 (HCC-2998 colon) | GI50 (A498 renal) | GI50 (CAKI-1 renal) | GI50 (MCF7 breast) | GI50 (SN12C renal)
CC(C)OC(=O)NNc1c(Cl)cc(Cl)cc1Cl | > 100 µM | > 100 µM | > 100 µM | > 100 µM | > 100 µM | > 100 µM | > 100 µM | > 100 µM | > 100 µM |  |  |  |  |  |  |  |  |  |  | 
O=C(Nc1ccc(Br)cc1)c1cc(Br)ccc1O | 3.23 µM and 5.66 µM | 8.61 µM and 6.87 µM | 22.8 µM and 17 µM | 2.12 µM and 3.03 µM | 7.67 µM and 35.7 µM | 0.841 µM and 1.82 µM | 2.49 µM and 5.62 µM | 3.37 µM and 7.8 µM | 5.14 µM and 8.36 µM | 0.43 µM and 1.38 µM | 0.986 µM and 2 µM | 0.346 µM and 0.749 µM | 0.747 µM and 0.729 µM | 4.52 µM and 4.03 µM | 0.327 µM and 0.724 µM | 2.36 µM and 3.46 µM | 0.219 µM and 0.358 µM | 0.333 µM and 1.21 µM | 0.412 µM and 1.29 µM | 0.252 µM and 1.42 µM
CC12CC(Br)(Br)C(=O)C3C1CCCC32 | 8.78 µM | 5.22 µM | 27.2 µM | 5.04 µM | 13.8 µM | 31.1 µM | 6.05 µM | 11.2 µM | 11.4 µM |  |  |  |  | 27.2 µM |  |  |  |  |  | 
Cc1ccc(S(=O)(=O)NC(=O)Nc2ncn[nH]2)cc1 | > 100 µM | > 100 µM | > 100 µM | > 100 µM | > 100 µM | > 100 µM | > 100 µM | > 100 µM | > 100 µM |  |  |  |  | > 100 µM |  |  |  |  |  | 
CCOC(=O)c1ccc(N[C@@H]2c3cc4c(cc3C(c3cc(OC)c(O)c(OC)c3)[C@H]3C(=O)OCC32)OCO4)cc1 (some centres not stated) | > 100 µM | 28.4 µM | 10 µM | 4.58 µM | 3.69 µM | 1.92 µM | 0.854 µM and 3.88 µM | 20.3 µM | 0.955 µM and 3.91 µM |  | 0.536 µM | 0.962 µM |  | 0.719 µM and 1.95 µM |  | 0.868 µM | 0.332 µM | 0.109 µM |  | 0.249 µM
O=c1oc2cc(O)ccc2cc1-c1nc2ccccc2o1 | > 100 µM | > 100 µM | > 100 µM | 54 µM | > 100 µM | 84.7 µM | > 100 µM | > 100 µM | > 100 µM |  |  |  |  | > 100 µM |  |  |  |  |  | 
O=C(Nc1cccc2[nH]c(C(F)(F)F)nc12)c1ccc(Br)cc1F | 12.1 µM | 13.2 µM | 32.4 µM | 10.3 µM | 16 µM | 5.57 µM | 15.7 µM | 15 µM | 10.8 µM | 3.33 µM | 3.38 µM | 6.75 µM | 2.97 µM | 12.8 µM | 3.01 µM | 4.8 µM | 2 µM | 2.89 µM | 2.5 µM | 3.1 µM
C(#Cc1ccccc1C#Cc1cnccn1)c1cnccn1 | 51.8 µM | > 100 µM | > 47.9 µM | > 85.8 µM | > 100 µM | 72.1 µM | 51.5 µM | > 67.5 µM | > 87.1 µM | 18.5 µM | 40.2 µM | > 22.9 µM | 28.1 µM | > 78.4 µM | 21.6 µM | 32.2 µM | 20.2 µM | 12.5 µM | 24.9 µM | 24.1 µM
Cc1nc2ccccc2c(/C=C/c2ccc(F)cc2)c1C(=O)/C=C/c1ccccc1 | 12.2 µM | > 100 µM | 6.15 µM | 13.6 µM | 3.32 µM | 4.62 µM | 3.83 µM | > 100 µM | 6.07 µM | 2.94 µM | 2.9 µM | 1.71 µM | 1.85 µM | 4.16 µM | 2.98 µM | 1.76 µM | 2.22 µM | 1.58 µM | 2.08 µM | 2.25 µM
COc1cccc(/C=C2\COc3ccc(O)c(O)c3C2=O)c1OC | 7 µM | 5.44 µM | 10.9 µM | 8.7 µM | 3.96 µM | 13.9 µM | 4.69 µM | 14.9 µM | 12.9 µM | 2.3 µM | 2.1 µM | 2.62 µM | 10.7 µM | 51.2 µM | 1.89 µM | 1.99 µM | 4.01 µM | 1.71 µM | 1.76 µM | 2.77 µM
CN(COC(=O)C(C)(C)C)c1nc(N(C)COC(=O)C(C)(C)C)nc(N(C)COC(=O)C(C)(C)C)n1 |  | 82.2 µM | > 100 µM | > 100 µM | > 100 µM | > 100 µM | > 100 µM | > 100 µM | > 100 µM |  |  |  |  | > 100 µM |  |  |  |  |  | 
O=C(NCCc1nccs1)c1cnc2c(S)cccc2c1 | 53.5 µM | 28.7 µM | 24.7 µM | > 100 µM | 29.1 µM | 16.7 µM | 37.4 µM | 37.5 µM |  | 3.85 µM | 3.62 µM | 1.96 µM | 5.7 µM | 21.4 µM | 2.61 µM | 10.5 µM | 4.59 µM | 3.22 µM | 1.02 µM | 
COc1cccc(C2=C(c3cn(C)c4c(C)cccc34)C(=O)NC2=O)c1 | > 25 µM | > 25 µM | > 25 µM | > 25 µM | > 25 µM | > 21.9 µM | > 25 µM | > 25 µM | > 25 µM | 18.2 µM | > 25 µM | > 25 µM | 19.4 µM | > 25 µM | > 25 µM | > 25 µM | 5.89 µM | > 14.1 µM | 16.5 µM | > 25 µM
CCc1n(Cc2ccc3ccccc3c2)cc[n+]1Cc1ccc2ccccc2c1 | 1.57 µM | 2.55 µM | 2.32 µM | 2.12 µM | 1.85 µM | 4.15 µM | 25.5 µM | 1.8 µM | 2.12 µM | 0.424 µM | 0.964 µM | 0.736 µM | 1.08 µM | 3.82 µM | 0.674 µM | 0.518 µM | 1.13 µM | 12.4 µM | 0.384 µM | 0.572 µM
CCCCCCCCCCCCNCCCc1ccccc1 | 3.17 µM | 3.28 µM | 3.49 µM | 3.19 µM | 3.23 µM | 6.69 µM | 3.44 µM | 3.35 µM | 3.27 µM | 1.73 µM | 1.64 µM | 1.93 µM | 1.87 µM | 3.61 µM | 1.75 µM | 1.75 µM | 2.3 µM | 1.79 µM | 1.81 µM | 1.63 µM
